What was measured:
[1] = target: T1, dopamine D2 receptor (D2R, D2L long isoform) (Homo sapiens, UniProt P14416); experiment: cell-based; conditions: read-out: % of the mean response to 1 μM dopamine
[2] = target: dopamine D3 receptor (D3R) (Homo sapiens, UniProt P35462); experiment: GIRK1/[…] current activation in Xenopus oocytes expressing D3R; assay type: cell-based
[3] = target: T1, dopamine D2 receptor (D2R, D2L long isoform); experiment: GIRK1/[…] current activation in Xenopus oocytes; assay type: cell-based

T1 sequence (P14416 whole entry, canonical isoform): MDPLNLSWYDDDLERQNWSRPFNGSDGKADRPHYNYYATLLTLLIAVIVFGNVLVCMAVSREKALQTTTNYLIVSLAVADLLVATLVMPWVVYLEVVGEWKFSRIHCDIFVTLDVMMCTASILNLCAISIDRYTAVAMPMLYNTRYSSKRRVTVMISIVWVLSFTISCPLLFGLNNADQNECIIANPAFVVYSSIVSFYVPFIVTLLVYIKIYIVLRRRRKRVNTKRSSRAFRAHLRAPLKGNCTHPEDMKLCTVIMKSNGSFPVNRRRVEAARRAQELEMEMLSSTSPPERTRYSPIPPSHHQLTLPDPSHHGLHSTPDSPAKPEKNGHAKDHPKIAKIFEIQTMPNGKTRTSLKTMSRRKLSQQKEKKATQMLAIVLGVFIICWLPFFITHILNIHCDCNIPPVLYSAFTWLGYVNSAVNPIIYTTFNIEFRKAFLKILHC
dopamine D3 receptor (D3R), sequence (P35462 whole entry, canonical isoform): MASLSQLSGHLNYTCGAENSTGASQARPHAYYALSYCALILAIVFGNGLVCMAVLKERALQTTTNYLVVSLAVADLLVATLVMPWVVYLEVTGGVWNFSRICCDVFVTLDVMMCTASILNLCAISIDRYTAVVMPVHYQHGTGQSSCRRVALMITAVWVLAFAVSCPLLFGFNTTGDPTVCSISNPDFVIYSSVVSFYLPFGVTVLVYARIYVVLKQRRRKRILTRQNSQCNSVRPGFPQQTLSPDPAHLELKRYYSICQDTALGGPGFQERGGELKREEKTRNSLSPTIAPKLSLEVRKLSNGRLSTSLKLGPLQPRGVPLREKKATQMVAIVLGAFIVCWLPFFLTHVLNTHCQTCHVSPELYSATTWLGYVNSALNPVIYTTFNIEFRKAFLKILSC

Row | SMILES | Emax [1] | EC50 [2] | EC50 [3]
1 | CCCN1CCC[C@@H](c2cccc(O)c2)C1 [(-)-3-PPP] | 27.7 ± 7.5% | – | –
2 | Clc1cccc(C2CCN(CCCOc3ccc4scnc4c3)CC2)c1Cl [UNC9994] | – | 62.1 nM | 185 nM
